Measured values published in patent US10159640B2, “Prebiotic oral care compositions containing amino acids” (COLGATE-PALMOLIVE COMPANY, priority 2013, dated 2018).

Test system: beneficial oral bacteria and pathogenic oral bacteria
Experiment: Extent of growth, whole panel: prebiotic effect
Format: cell-based
Conditions: threshold value of 1.25
Description: Substrates that were able to increase the growth (or maximal growth density or extent of growth) of at least one of the above beneficial bacteria while not or only minimally increasing the growth (or maximal growth density) of the pathogenic bacteria are considered to be prebiotic compounds.
The extent of growth of the tested bacteria in response to selected compounds (Met-Pro, Phe-Glu) was investigated by setting up growth curves in a nutritionally rich medium (brain heart infusion broth (BHI), Oxoid), over 48 hours. Late exponential growth phase liquid cultures were prepared by transferring the respective bacterium from blood agar plates to BHI and overnight incubation at 37° C. in an anaerobic atmosphere for A. viscosus, V. parvula, F. nucleatum, P. gingivalis, P. intermedia, T. forsythia, A. naeslundii, and C. sputigena, and in a 5% CO2 environment for S. salivarius, S. sanguinis, S. mitis, A. actinomycetemcomitans, S. mutans, S. sobrinus and S. gordonii. Overnight cultures were transferred to BHI and adjusted to a concentration of 1×10^7 CFU/ml (colony forming units per ml) by measuring the optical density at 600 nm (OD600) (BioRad SmartSpec 3000). For each strain, 200 μl of the bacterial suspension was added to a 96-well plate containing 20 μl of the respective di-peptides. Final concentrations of the di-peptides were set to 5, 10, 20 and 25 μmol/ml. […] Plates were incubated as previously described.
For each combination of bacterium/dipeptide, and for each of their respective controls (i.e. the particular bacterium in the nutritionally rich medium with no dipeptide), the optical density was measured at 630 nm (OD630) at 0 h, 24 h and 48 h (Thermo Scientific Multiskan Ascent). Additionally, the OD630 for combinations of bacterium/dipeptide grown in a 5% CO2 environment were also measured every hour between 0 h and 9 h.
The experiment was carried out on three different days (thus providing 3 biological replicas) and on each day the experiment was carried out in quadruple (thus providing 4 technical replicas) for each combination of bacterium with dipeptide and for each control. For each day and for each combination, the average (mean) of the values obtained (as detailed above) for the four technical replicas was calculated to provide a single value for each combination on each day. The values shown in Tables 5 to 6, below, are the average (mean) of the three single values obtained for each combination of bacterium with dipeptide.
This value was selected in order to exclude low-stimulating metabolites and avoid false positive results.

Substance	prebiotic effects (extent of growth) (5 μmol/ml)	prebiotic effects (extent of growth) (10 μmol/ml)	prebiotic effects (extent of growth) (20 μmol/ml)	prebiotic effects (extent of growth) (25 μmol/ml)
Phe-Glu	exhibited prebiotic effects	exhibited prebiotic effects		
Met-Pro		exhibited prebiotic effects	exhibited prebiotic effects	exhibited prebiotic effects
